As a reminder, the MIC is the lowest concentration that inhibits growth of the organism. A lower MIC goes with greater potency.

≈ marks a conversion by molar mass, not a printed value.

The source of these data is patent publication US20030158093A1, “Bifunctional glycopeptide antibiotics and combinatorial libararies thereof” (priority 2001, published 2003).

Holding throughout (assay type): cell-based
The test system of assay [1] is E. faecalis resistant (VanB) (CL4877). Description: MIC, standard microdilution assay, E. faecalis resistant (VanB). The conditions noted are these: strain CL4877; for MIC: Enterococcus faecalis, 22 h. The procedure: (§1) Briefly, compound 7 and compound 10 were synthesized by utilizing procedures described, for example, in Thompson, C. et al., J. Am. Chem. Soc., 1999, 121, 1237. Compound 8 was prepared from tri-O-acetyl-D-glucal by a one-step procedure described by Chen, Z. Ph.D. Dissertation, Princeton University, Princeton, N.J. 2001.
On the technique in general: Dilution methods test growth across graded concentrations, often in twofold steps.

Assay [2] relates to E. faecalis sensitive (29212). Description: MIC, standard microdilution assay, E. faecalis sensitive. The note with it: strain 29212; for MIC: Enterococcus faecalis, 22 h. The procedure:
as §1

A further assay deals with S. aureus (29213). Description: MIC, standard microdilution assay, S. aureus. The note with it: strain 29213; for MIC: Staphylococcus aureus, 22 h. The procedure:
as §1

Assay [3] deals with E. faecium resistant (VanA) (CL4931). Description: MIC, standard microdilution assay, E. faecium resistant (VanA). The conditions noted are these: strain CL4931; for MIC: Enterococcus faecium, 22 h. The procedure:
as §1

For assay [4], the system named is E. faecium sensitive (49624). Description: MIC, standard microdilution assay, E. faecium sensitive. The conditions noted are these: strain 49624; for MIC: Enterococcus faecium, 22 h. The procedure:
as §1

The next assay has as its system transglycosylation. Description: Inhibition of transglycosylation in a permeabilized E. coli model.

As for `CN[C@H](CC(C)C)C(=O)N[C@H]1C(=O)N[C@@H](CC(N)=O)C(=O)N[C@H]2C(=O)N[C@H]3C(=O)N[C@H](C(=O)N[C@H](C(=O)O)c4cc(O)cc(O)c4-c4cc3ccc4O)[C@H](O)c3ccc(c(Cl)c3)Oc3cc2cc(c3O)Oc2ccc(cc2Cl)[C@H]1O` [Vancomycin Aglycon, Vancomycin aglycone], the “22-hr MIC E. faecalis resistant (VanB)” value in assay [1] (Table 2) is greater than 500 µg/mL. In addition, the “22-hr MIC E. faecalis sensitive” value in assay [2] (Table 2) was found to be 8 µg/mL. Moreover, in the assay with S. aureus (29213) (Table 2), the “22-hr MIC S. aureus” value stood at 2 µg/mL. Moreover, in assay [3] (Table 2), the “22-hr MIC E. faecium resistant (VanA)” value was greater than 500 µg/mL. In addition, the “22-hr MIC E. faecium sensitive” value in assay [4] (Table 2) was determined as 2 µg/mL.
For vancomycin [Compound 1a], in assay [1] (Table 1, 35° C., 22h), the “MIC E. faecalis resistant (VanB)” value is greater than 500 µg/mL. Moreover, the “MIC E. faecalis sensitive” value in assay [2] (Table 1, 35° C., 22h) was found to be 16 µg/mL. Further, the “MIC S. aureus” value with S. aureus (29213) (Table 1, 35° C., 22h) worked out at 4 µg/mL. Moreover, in assay [3] (Table 1, 35° C., 22h), the “MIC E. faecium resistant (VanA)” value is greater than 500 µg/mL. Further, the “MIC E. faecium sensitive” value in assay [4] (Table 1, 35° C., 22h) was 2 µg/mL.
On to `CCCCCCCCCCCCOP(=O)(O)OC1OC(C(N)=O)C(OC)C(NC(=O)Nc2ccc(Cl)c(C(F)(F)F)c2)C1OC1OC(CO)C(O)C(O)C1NC(=O)c1cccc(C(F)(F)F)c1` (stereo not drawn) [Compound 4], for which the MIC in assay [1] (Table 2) stood at 3.1 µg/mL (≈ 3.07 µM); in assay [2] (Table 2), 6.2 µg/mL (≈ 6.14 µM); against S. aureus (29213) (Table 2) it was 6.2 µg/mL (≈ 6.14 µM); in assay [3] (Table 2), 6.2 µg/mL (≈ 6.14 µM); in assay [4] (Table 2), 6.2 µg/mL (≈ 6.14 µM). The inhibition of transglycosylation entry with transglycosylation is “inhibits transglycosylation”.
Turning to `COc1cccc(OC)c1OCCOC1OC(C(N)=O)C(OC)C(NC(=O)Nc2ccc(Cl)c(C(F)(F)F)c2)C1OC1OC(CO)C(O)C(O)C1NC(=O)c1cccc(C(F)(F)F)c1` (stereo not drawn) [Compound 6], the MIC in assay [1] (Table 2) was 250 µg/mL (≈ 266 µM); in assay [2] (Table 2) it was 125 µg/mL (≈ 133 µM); against S. aureus (29213) (Table 2), 125 µg/mL (≈ 133 µM); in assay [3] (Table 2), 250 µg/mL (≈ 266 µM); in assay [4] (Table 2), 250 µg/mL (≈ 266 µM).
